Reference: patent publication US9273057B2 (Bristol-Myers Squibb Company, priority 2012, dated 2016)

Biological target: CK2A1 (CK2α/β) (Homo sapiens, UniProt P68400)
Experiment: CK2 kinase assay, CK2A1 (CK2α/β)
Format: biochemical
Conditions: Table A; read-out: CK2A1 (CK2α/β) (IC50)
Method: For example, in vitro protein kinase assays may be conducted with a relevant purified protein kinase and an appropriate synthetic substrate to determine the inhibitory activity of the compounds. […] Reaction mixtures were incubated at 30° C. for 1 hour, and reaction products were captured by binding to phosphocellulose (P81) filter plates. Incorporation of radioactive phosphate into the peptide substrate was determined by liquid scintillation counting.
The inhibitory activity of the instant compounds may also be measured by recombinant CK2 holoenzyme kinase assays. The assays were performed in U-bottom 384-well plates. […] The reaction was initiated by the combination of bacterially expressed, CK2 α/β or CK2 holoenzyme with substrates and test compounds. The reaction was incubated at room temperature for 60 minutes and terminated by adding 30 μl of 35 mM EDTA to each sample. The reaction mixture was analyzed on the Caliper LABCHIP® 3000 (Caliper, Hopkinton, Mass.) by electrophoretic separation of the fluorescent substrate and phosphorylated product. […] Compounds were dissolved at 10 mM in dimethylsulfoxide (DMSO) and evaluated at eleven concentrations. IC50 values were derived by non-linear regression analysis.

Sequence of CK2A1 (CK2α/β) (P68400 whole entry, species assumed): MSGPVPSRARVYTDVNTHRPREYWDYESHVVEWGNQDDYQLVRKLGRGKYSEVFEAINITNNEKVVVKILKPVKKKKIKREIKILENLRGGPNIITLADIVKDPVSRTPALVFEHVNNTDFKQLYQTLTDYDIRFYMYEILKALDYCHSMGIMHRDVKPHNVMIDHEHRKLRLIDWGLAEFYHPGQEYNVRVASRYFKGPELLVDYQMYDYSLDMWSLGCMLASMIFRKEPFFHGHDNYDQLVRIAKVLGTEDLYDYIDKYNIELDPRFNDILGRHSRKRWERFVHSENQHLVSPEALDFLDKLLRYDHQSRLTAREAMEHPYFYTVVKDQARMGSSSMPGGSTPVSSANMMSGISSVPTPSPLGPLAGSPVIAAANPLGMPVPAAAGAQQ
Sequence of CK2A1 (CK2α/β) (P67870 whole entry partner, species assumed): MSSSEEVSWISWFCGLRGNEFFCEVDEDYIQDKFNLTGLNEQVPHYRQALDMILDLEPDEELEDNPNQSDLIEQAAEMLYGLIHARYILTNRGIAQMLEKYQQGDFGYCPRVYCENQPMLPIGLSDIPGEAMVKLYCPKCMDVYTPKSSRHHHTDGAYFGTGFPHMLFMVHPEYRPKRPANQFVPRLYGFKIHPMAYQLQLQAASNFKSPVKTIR

Going from `CCNc1nc(Nc2cc(C#N)cc(C3CCN(CC(C)(C)O)CC3)c2Cl)nn2c(C#N)cnc12` [Example 353, 2-((2-chloro-5-cyano-3-(1-(2-hydroxy-2-methylpropyl)-4-piperidinyl)phenyl)amino)-4-(ethylamino)imidazo[2,1-f][1,2,4]triazine-7-carbonitrile] to `CC(C)(CO)N1CCC(c2cc(C#N)cc(Nc3nc(NC4CC4)c4ncc(C#N)n4n3)c2Cl)CC1` [Example 643, 2-((2-chloro-5-cyano-3-(1-(1-hydroxy-2-methylpropan-2-yl)piperidin-4-yl)phenyl)amino)-4-(cyclopropylamino)imidazo[2,1-f][1,2,4]triazine-7-carbonitrile], the IC50 rises from 0.87 nM to 2.12 nM (2.4-fold).

First: COCCOC(=O)N1CCC(N2CCN(c3cc(C#N)cc(Nc4nc(NC5CC5)c5ncc(C#N)n5n4)c3Cl)CC2)C1 (stereo not shown) [Example 579, 2-methoxyethyl 3-[4-(2-chloro-5-cyano-3-{[7-cyano-4-(cyclopropylamino)imidazo[2,1-f][1,2,4]triazin-2-yl]amino}phenyl)piperazin-1-yl]pyrrolidine-1-carboxylate]
Second: CN1CCN2CCN(c3cc(C#N)cc(Nc4nc(NC5CC5)c5ncc(C#N)n5n4)c3Cl)CC2C1=O (racemic) [Example 626, (+/−)-2-((2-chloro-5-cyano-3-(8-methyl-9-oxohexahydro-1H-pyrazino[1,2-a]pyrazin-2(6H)-yl)phenyl)amino)-4-(cyclopropylamino)imidazo[2,1-f][1,2,4]triazine-7-carbonitrile]
The IC50 of the first is 5.5-fold higher: 4.1 nM for the first, 0.74 nM for the second.

First: CCNc1nc(Nc2cc(C#N)cc(N3CC(C)[C@H](NC(=O)OC)C3)c2Cl)nn2c(C#N)cnc12 (stereo in doubt) [Example 336, methyl ((3S,4R)-1-(2-chloro-5-cyano-3-((7-cyano-4-(ethylamino)imidazo[2,1-f][1,2,4]triazin-2-yl)amino)phenyl)-4-methyl-3-pyrrolidinyl)carbamate]
Second: COC(=O)N[C@@H]1CN(c2cc(C#N)cc(Nc3nc(NC4CC4)c4ncc(C#N)n4n3)c2Cl)C[C@H]1C (racemic) [Example 21, (+/−) methyl ((3S,4R)-1-(2-chloro-5-cyano-3-((7-cyano-4-(cyclopropylamino)imidazo [2,1-f][1,2,4]triazin-2-yl)amino)phenyl)-4-methyl-3-pyrrolidinyl)carbamate]
The IC50 of the first is 1.6-fold lower: 0.74 nM for the first, 1.16 nM for the second.

`COC(=O)N[C@@H]1CN(c2cc(C#N)cc(Nc3nc(NC4CC4)c4ncc(C#N)n4n3)c2Cl)CC[C@H]1O` (racemic) [Example 191, (+/−)-methyl ((3R,4R)-1-(2-chloro-5-cyano-3-((7-cyano-4-(cyclopropylamino)imidazo[2,1-f][1,2,4]triazin-2-yl)amino)phenyl)-4-hydroxypiperidin-3-yl)carbamate] and `CNC1CCN(c2cc(C#N)cc(Nc3nc(NC4CC4)c4ncc(C#N)n4n3)c2Cl)C1` (racemic) [Example 28, (+/−) 2-((2-chloro-5-cyano-3-(3-(methylamino)-1-pyrrolidinyl)phenyl)amino)-4-(cyclopropylamino)imidazo [2,1-f][1,2,4]triazine-7-carbonitrile] are within 1.5-fold of each other in IC50: 0.66 nM for the first, 0.57 nM for the second.

`N#Cc1cc(Nc2nc(NC3CC3)c3ncc(C#N)n3n2)c(Cl)c(N2CCC3(CC2)CN(CC(=O)N2CCNCC2)C3)c1` [Example 804] and `N#Cc1cc(Nc2nc(NC3CC3)c3ncc(C#N)n3n2)c(Cl)c(N2CCC3(CC2)CN(CC(O)CF)C3)c1` (racemic) [Example 796, (+/−)-2-((2-chloro-5-cyano-3-(2-(3-fluoro-2-hydroxypropyl)-2,7-diazaspiro[3.5]nonan-7-yl)phenyl)amino)-4-(cyclopropylamino)imidazo[2,1-f][1,2,4]triazine-7-carbonitrile] are within 1.5-fold of each other in IC50: 1.7 nM for the first, 1.69 nM for the second.

Going from `N#Cc1cnc2c(NC3CC3)nc(Nc3cc(C(F)F)cc(N4CCN(C5CS(=O)(=O)C5)CC4)c3Cl)nn12` [Example 272, 2-((2-chloro-5-(difluoromethyl)-3-(4-(1,1-dioxidothietan-3-yl)piperazin-1-yl)phenyl)amino)-4-(cyclopropylamino)imidazo[2,1-f][1,2,4]triazine-7-carbonitrile] to `N#Cc1cc(Nc2nc(NC3CC3)c3ncc(C#N)n3n2)c(F)c(N2CCN([C@@H]3CS(=O)(=O)C[C@H]3O)CC2)c1` (racemic) [Example 553, rac-2-((5-cyano-2-fluoro-3-(4-((3R,4R)-4-hydroxy-1,1-dioxidotetrahydrothiophen-3-yl)piperazin-1-yl)phenyl)amino)-4-(cyclopropylamino)imidazo[2,1-f][1,2,4]triazine-7-carbonitrile], the IC50 rises from 0.58 nM to 5.55 nM (9.6-fold). The first is the more potent here.

Going from `N#Cc1cnc2c(NC3CC3)nc(Nc3cc(C(F)F)cc(N4CCC(C(CO)CO)CC4)c3Cl)nn12` [Example 277, 2-((2-chloro-5-(difluoromethyl)-3-(4-(2-hydroxy-1-(hydroxymethyl)ethyl)-1-piperidinyl)phenyl)amino)-4-(cyclopropylamino)imidazo[2,1-f][1,2,4]triazine-7-carbonitrile] to `CN1CCN(c2cc(C#N)cc(Nc3nc(NC4CC4)c4ncc(C#N)n4n3)c2Cl)CC1` [Example 1, 2-((2-chloro-5-cyano-3-(4-methyl-1-piperazinyl)phenyl)amino)-4-(cyclopropylamino)imidazo[2,1-f][1,2,4]triazine-7-carbonitrile], the IC50 falls from 2.56 nM to 0.9 nM (2.8-fold).

Compared with `CCNc1nc(Nc2cc(C#N)cc(N3CCOC(C(C)(C)O)C3)c2Cl)nn2c(C#N)cnc12` (racemic) [Example 361, (+/−) 2-((2-chloro-5-cyano-3-(2-(1-hydroxy-1-methylethyl)-4-morpholinyl)phenyl)amino)-4-(ethylamino)imidazo[2,1-f][1,2,4]triazine-7-carbonitrile], `CCNc1nc(Nc2cc(C#N)cc(N3CCN(CC(C)O)CC3)c2Cl)nn2c(C#N)cnc12` (stereo in doubt) [Example 429, 2-((2-chloro-5-cyano-3-(4-((2R)-2-hydroxypropyl)-1-piperazinyl)phenyl)amino)-4-(ethylamino)imidazo[2,1-f][1,2,4]triazine-7-carbonitrile] is 1.5-fold higher in IC50: 0.85 nM for the first, 1.28 nM for the second.

Going from `N#Cc1cc(Nc2nc(NC3CC3)c3ncc(C#N)n3n2)c(Cl)c(N2CC[C@@H](NC3COC3)C2)c1` [Example 44, 2-((2-chloro-5-cyano-3-((3R)-3-(3-oxetanylamino)-1-pyrrolidinyl)phenyl)amino)-4-(cyclopropylamino)imidazo [2,1-f][1,2,4]triazine-7-carbonitrile] to `CN1CC2CN(c3cc(C#N)cc(Nc4nc(NC5CC5)c5ncc(C#N)n5n4)c3Cl)CC2C1` (stereo not shown) [Example 461, 2-((2-chloro-5-cyano-3-(5-methylhexahydropyrrolo[3,4-c]pyrrol-2(1H)-yl)phenyl)amino)-4-(cyclopropylamino)imidazo[2,1-f][1,2,4]triazine-7-carbonitrile], the IC50 rises from 0.33 nM to 2.46 nM (7.5-fold). The first is the more potent here.

Going from `CC(C)(C)NCC(O)c1cc(C#N)cc(Nc2nc(NC3CC3)c3ncc(C#N)n3n2)c1Cl` (stereo not shown) [Example 692, 2-((3-(2-(tert-butylamino)-1-hydroxyethyl)-2-chloro-5-cyanophenyl)amino)-4-(cyclopropylamino)imidazo[2,1-f][1,2,4]triazine-7-carbonitrile] to `CC(O)(CO)c1cc(C#N)cc(Nc2nc(NC3CC3)c3ncc(C#N)n3n2)c1Cl` (racemic) [Example 682, (+/−)-2-((2-chloro-5-cyano-3-(1,2-dihydroxypropan-2-yl)phenyl)amino)-4-(cyclopropylamino)imidazo[2,1-f][1,2,4]triazine-7-carbonitrile], the IC50 falls from 1.81 nM to 0.32 nM (5.7-fold).

`CO[C@@H]1CN(c2cc(C#N)cc(Nc3nc(NC4CC4)c4ncc(C#N)n4n3)c2Cl)C[C@@H]1NS(C)(=O)=O` [Example 289, N-((3S,4R)-1-(2-chloro-5-cyano-3-((7-cyano-4-(cyclopropylamino)imidazo[2,1-f][1,2,4]triazin-2-yl)amino)phenyl)-4-methoxy-3-pyrrolidinyl)methanesulfonamide] and `C[C@@H](CN1CCN(c2cc(C#N)cc(Nc3nc(NC4CC4)c4ncc(C#N)n4n3)c2Cl)CC1)NS(C)(=O)=O` [Example 69, N-((1S)-2-(4-(2-chloro-5-cyano-3-((7-cyano-4-(cyclopropylamino)imidazo[2,1-f][1,2,4]triazin-2-yl)amino)phenyl)-1-piperazinyl)-1-methylethyl) methanesulfonamide] are within 1.5-fold of each other in IC50: 0.59 nM for the first, 0.47 nM for the second.

`N#Cc1cc(CNCc2ccccn2)c(Cl)c(Nc2nc(NC3CC3)c3ncc(C#N)n3n2)c1` [Example 467, 2-[(2-chloro-5-cyano-3-{[(pyridin-2-ylmethyl)amino]methyl}phenyl)amino]-4-(cyclopropylamino)imidazo[2,1-f][1,2,4]triazine-7-carbonitrile] and `N#Cc1cc(CN2CC(O)C2)c(Cl)c(Nc2nc(NC3CC3)c3ncc(C#N)n3n2)c1` [Example 673, 2-((2-chloro-5-cyano-3-((3-hydroxyazetidin-1-yl)methyl)phenyl)amino)-4-(cyclopropylamino)imidazo[2,1-f][1,2,4]triazine-7-carbonitrile] are within 1.5-fold of each other in IC50: 0.45 nM for the first, 0.49 nM for the second.

Going from `CS(=O)(=O)N1CCN(Cc2cc(C#N)cc(Nc3nc(NC4CC4)c4ncc(C#N)n4n3)c2Cl)CC1` [Example 401, 2-((2-chloro-5-cyano-3-((4-(methylsulfonyl)piperazin-1-yl)methyl)phenyl)amino)-4-(cyclopropylamino)imidazo[2,1-f][1,2,4]triazine-7-carbonitrile] to `N#Cc1cc(Nc2nc(NC3CC3)c3ncc(C#N)n3n2)c(Cl)c([C@H]2CCC[C@@H](N3CC(O)C3)C2)c1` (single isomer, unassigned) [Example 731], the IC50 rises from 0.38 nM to 1.46 nM (3.8-fold).

Going from `CCNc1nc(Nc2cc(C#N)cc(N3CC[C@@H]4[C@@H](C3)OC(=O)N4C3COC3)c2Cl)nn2c(C#N)cnc12` [Example 839, 2-((2-chloro-5-cyano-3-((3aR,7aR)-1-(oxetan-3-yl)-2-oxohexahydrooxazolo[5,4-c]pyridin-5(2H)-yl)phenyl)amino)-4-(ethylamino)imidazo[2,1-f][1,2,4]triazine-7-carbonitrile] to `COC(=O)Nc1cc(Nc2nc(NC3CC3)c3ncc(C#N)n3n2)c(Cl)c(N2CCC(N3CCOCC3)CC2)c1` [Example 205, methyl (4-chloro-3-((7-cyano-4-(cyclopropylamino)imidazo[2,1-f][1,2,4]triazin-2-yl)amino)-5-(4-(4-morpholinyl)-1-piperidinyl)phenyl)carbamate], the IC50 rises from 1.19 nM to 1.95 nM (1.6-fold).
